Measured values as given in US12071425B2 (Genentech, Inc., priority 2018, dated 2024).
pIC50: −log10 of the molar value.

Molecular target: kinase domain of IRE1 alpha (His-tagged kinase dead construct KR, AA G547-L977, D688N) (Homo sapiens (Human), UniProt O75460, D688N)
Assay: IRE1α TR-FRET competition binding assay
Settings: competition with Kinase Tracer 236, 0.1 μM; one hour at room temperature
Outline: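 Sf9-expressed kinase-dead KR construct (0.006 μM final) pre-incubated 1 h at 4° C with Eu anti-His antibody (0.002 μM) in HEPES pH 7.5/MgCl2/Brij/DTT buffer; Kinase Tracer 236 (ATP-competitive probe, 0.1 μM final) added with compound. 1 h at room temperature; tracer displacement read by TR-FRET (665/615 nm).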

Sequence of kinase domain of IRE1 alpha (His-tagged kinase dead construct KR, AA G547-L977, D688N) (O75460 547-977 D688N): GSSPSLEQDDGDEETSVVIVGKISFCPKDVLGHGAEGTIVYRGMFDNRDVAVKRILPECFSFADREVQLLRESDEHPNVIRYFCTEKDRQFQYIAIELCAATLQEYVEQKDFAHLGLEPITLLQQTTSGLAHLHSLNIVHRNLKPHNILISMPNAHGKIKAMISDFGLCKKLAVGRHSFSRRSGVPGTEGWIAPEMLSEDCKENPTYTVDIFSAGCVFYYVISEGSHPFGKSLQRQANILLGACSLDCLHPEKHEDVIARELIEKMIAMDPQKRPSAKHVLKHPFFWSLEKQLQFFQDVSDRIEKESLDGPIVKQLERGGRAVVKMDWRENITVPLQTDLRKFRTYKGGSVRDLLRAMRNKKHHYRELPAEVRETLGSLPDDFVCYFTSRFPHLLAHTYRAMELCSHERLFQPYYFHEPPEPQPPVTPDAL

Structure (SMILES) | pIC50
Cc1c(Oc2ncccc2-c2ccnc(N[C@@H]3CNC[C@@H](F)C3)n2)cc(F)c(NS(=O)(=O)Cc2c(F)cccc2F)c1F [Compound 293, N-(2,6-Difluoro-4-((3-(2-(((3S,5S)-5-fluoropiperidin-3-yl)amino)pyrimidin-4-yl)pyridin-2-yl)oxy)-3-methylphenyl)-1-(2,6-difluorophenyl)methanesulfonamide] | 9.39
COc1cc(Oc2ncccc2-c2ccnc(N[C@@H]3CNC[C@@H](F)C3)n2)cc(F)c1NS(=O)(=O)Cc1ccccc1 [Compound 296, N-(2-Fluoro-4-((3-(2-(((3S,5S)-5-fluoropiperidin-3-yl)amino)pyrimidin-4-yl)pyridin-2-yl)oxy)-6-methoxyphenyl)-1-phenylmethanesulfonamide] | 7.85
Cc1ccc(CS(=O)(=O)Nc2cc(C)c(Oc3ncccc3-c3ccnc(N[C@@H]4CNC[C@@](C)(F)C4)n3)c(F)c2F)cc1 [Compound 297, N-(2,3-Difluoro-4-((3-(2-(((3S,5S)-5-fluoro-5-methylpiperidin-3-yl)amino)pyrimidin-4-yl)pyridin-2-yl)oxy)-5-methylphenyl)-1-(p-tolyl)methanesulfonamide] | 9.55
COc1ccc(CS(=O)(=O)Nc2c(F)cc(Oc3ncccc3-c3ccnc(N[C@@H]4CNC[C@@](C)(F)C4)n3)c(F)c2F)cc1 [Compound 304, 1-(4-Methoxyphenyl)-N-(2,3,6-trifluoro-4-((3-(2-(((3S,5S)-5-fluoro-5-methylpiperidin-3-yl)amino)pyrimidin-4-yl)pyridin-2-yl)oxy)phenyl)methanesulfonamide] | 9.64
Cc1ccc(CS(=O)(=O)Nc2c(C)cc(Oc3ncccc3-c3ccnc(N[C@@H]4CNC[C@@](C)(F)C4)n3)c(F)c2F)cc1 [Compound 305, N-(2,3-Difluoro-4-((3-(2-(((3S,5S)-5-fluoro-5-methylpiperidin-3-yl)amino)pyrimidin-4-yl)pyridin-2-yl)oxy)-6-methylphenyl)-1-(p-tolyl)methanesulfonamide] | 9.68
CCCS(=O)(=O)Nc1c(F)cc(Oc2ncccc2-c2ccnc(N[C@H]3CC[C@H](N(C)C)CC3)n2)c(F)c1F [Compound 309, N-(4-((3-(2-(((1r,4r)-4-(Dimethylamino)cyclohexyl)amino)pyrimidin-4-yl)pyridin-2-yl)oxy)-2,3,6-trifluorophenyl)propane-1-sulfonamide] | 8.96
CN(C)[C@H]1CC[C@H](Nc2nccc(-c3cccnc3Oc3cc(F)c(NS(=O)(=O)CCC(C)(F)F)c(F)c3F)n2)CC1 [Compound 310, N-(4-((3-(2-(((1r,4r)-4-(Dimethylamino)cyclohexyl)amino)pyrimidin-4-yl)pyridin-2-yl)oxy)-2,3,6-trifluorophenyl)-3,3-difluorobutane-1-sulfonamide] | 9.49
Cc1ccc(CS(=O)(=O)Nc2cc(F)c(Oc3ncccc3-c3ccnc(N[C@@H]4CNC[C@@](C)(F)C4)n3)c(C)c2F)cc1 [Compound 311, N-(2,5-Difluoro-4-((3-(2-(((3S,5S)-5-fluoro-5-methylpiperidin-3-yl)amino)pyrimidin-4-yl)pyridin-2-yl)oxy)-3-methylphenyl)-1-(p-tolyl)methanesulfonamide] | 9.54
CS(=O)(=O)c1ccc(CS(=O)(=O)Nc2c(F)cc(Oc3ncccc3-c3ccnc(N[C@@H]4CNC[C@@H](F)C4)n3)c(F)c2F)cc1 [Compound 312, 1-(4-(Methylsulfonyl)phenyl)-N-(2,3,6-trifluoro-4-((3-(2-(((3S,5S)-5-fluoropiperidin-3-yl)amino)pyrimidin-4-yl)pyridin-2-yl)oxy)phenyl)methanesulfonamide] | 9.85
O=S(=O)(Cc1ccc(C2CC2)cc1)Nc1c(F)cc(Oc2ncccc2-c2ccnc(N[C@@H]3CNC[C@@H](F)C3)n2)c(F)c1F [Compound 315, 1-(4-Cyclopropylphenyl)-N-(2,3,6-trifluoro-4-((3-(2-(((3S,5S)-5-fluoropiperidin-3-yl)amino)pyrimidin-4-yl)pyridin-2-yl)oxy)phenyl)methanesulfonamide] | 9.64
